Measured values reported in patent US7572777B2, “Florfenicol prodrug having improved water solubility” (Schering-Plough Animal Health Corp., priority 2003, dated 2009).

Columns and labels:
physchem = assay type: physicochemical
Experimental: Successive aliquots of solid phosphate ester prodrug (sodium salt) were added to water with agitation. Addition was continued until mixing became difficult due to high viscosity, at which point all of the prodrug remained in solution.

[1] = Conversion of florfenicol phosphate to florfenicol in swine (plasma florfenicol after iv dosing); assay type: in vivo; details: pigs, approximately 6.7 mg/kg (FIG. 4)
Experimental: FIG. 4 is a graphic presentation of florfenicol concentrations in the plasma of pigs following intravenous administration of florfenicol phosphate ester. The plot depicts florfenicol concentrations detected in the plasma of three pigs following intravenous administration of the florfenicol phosphate ester prodrug at a dose of approximately 6.7 mg/kg of body weight, which equates to a florfenicol equivalent dose of 5 mg/kg. Each symbol denotes the data from a different pig.
[…]. Plasma samples were collected after drug administration and analyzed for concentrations of florfenicol. […].

[2] = Conversion of florfenicol phosphate to florfenicol in dogs (plasma florfenicol after iv dosing); assay type: in vivo; details: approximately 11 mg/kg, HPLC-MS/MS (FIG. 3)
Experimental: . The plot depicts florfenicol concentrations in the plasma of three dogs following intravenous administration of the florfenicol phosphate ester prodrug at a dose of approximately 11.1 mg/kg of body weight, which equates to a florfenicol equivalent dose of 8.3 mg/kg. Each symbol denotes the data from a different dog.

[3] = Conversion of florfenicol phosphate to florfenicol in cattle (plasma florfenicol after iv dosing); assay type: in vivo; details: calves, approximately 10 mg/kg, HPLC-MS/MS (FIG. 2)
From the text: […]. Each symbol denotes the data from a different calf.

[4] = Stability of the phosphate prodrug in aqueous solutions; assay type: physicochemical; details: for % Compound B (cyclic phosphate formed) / % Compound C (free florfenicol formed) / % Compound A: 40° C., 30 days under nitrogen; for % Compound A: initial purity 98.3%
From the text: Although relatively stable in aqueous solutions, over prolonged periods of time the phosphate ester of florfenicol (Formula I) undergoes slow degradation resulting in the release of free florfenicol as well as the formation of cyclic phosphate diester. The formation of the cyclic diester occurs through the phosphate anion displacement of fluorine and requires participation of the phosphate di-anion, which is much more nucleophilic than the corresponding mono-anion. Therefore, the rate of formation of the cyclic diester is largely dependent on the pH of the solution or more generally, on the degree of the phosphate ionization. […]. However, even such small changes of pH result in noticeable differences of the amount of the cyclic phosphate diester formed.

[5] = Conversion of prodrug to florfenicol in bovine serum; details: 37° C., after 4 hours (FIG. 1)
[6] = Conversion of prodrug to florfenicol in rat serum; details: 37° C., after 4 hours (FIG. 1)
[7] = listed as Florfenicol phosphate
[8] = pH 4.48 adjusted with ethanolamine, 300 mg/mL active florfenicol
[9] = pH 4.54, aqueous solution 300 mg/mL active florfenicol
[10] = pH 4.95, aqueous solution 300 mg/mL active florfenicol
[11] = pH 5.03 adjusted with ethanolamine, 300 mg/mL active florfenicol
[12] = pH 5.51 adjusted with ethanolamine, 300 mg/mL active florfenicol
[13] = pH 5.53, aqueous solution 300 mg/mL active florfenicol

In the case of `CS(=O)(=O)c1ccc([C@@H](OP(=O)(O)O)[C@@H](CF)NC(=O)C(Cl)Cl)cc1` [florfenicol phosphate ester], the solubility (physchem; water, thermodynamic from solid) is reported as over 600 mg/mL, the “plasma florfenicol concentrations following treatment” value [1] is reported as “substantial concentrations of florfenicol were detected” and the “plasma florfenicol concentrations following treatment” value [1, 7] is reported as “increased rapidly”. For the same compound, the “plasma florfenicol concentrations following treatment” value [2] was “substantial concentrations of florfenicol were detected”, the “plasma florfenicol concentrations following treatment” value [2, 7] was “increased rapidly” and the “plasma florfenicol concentrations following treatment” value [3] was “substantial concentrations of florfenicol were detected”. For the same compound, the “plasma florfenicol concentrations following treatment” value [3, 7] was “increased rapidly”, the “stability in aqueous solution versus pH” value ([4]; below pH 4 or at neutral or higher pH ranges) was “less stable” and the “stability of aqueous solutions of the prodrug” value ([4]; close to one equivalent of sodium hydroxide or ethanolamine added to concentrated aqueous solution, approximately pH 4.5 to pH 5.5) was “Satisfactory stability”. The “effect of ionic strength on aqueous stability” value ([4]; increased ionic strength) was “reduces the aqueous stability”, the “% Compound B (cyclic phosphate formed)” value [4, 8] was 0.18% and the “% Compound C (free florfenicol formed)” value [4, 8] was 0.92%. The “% Compound A” value [4, 8] was 93.43%, the “% Compound B (cyclic phosphate formed)” value [4, 9] was 0.17% and the “% Compound C (free florfenicol formed)” value [4, 9] was 1.02%. For the same compound, the “% Compound A” value [4, 9] was 94.40%, the “% Compound B (cyclic phosphate formed)” value [4, 10] was 0.37% and the “% Compound C (free florfenicol formed)” value [4, 10] was 1.01%. For the same compound, the “% Compound A” value [4, 10] was 93.38%, the “% Compound B (cyclic phosphate formed)” value [4, 11] was 0.58% and the “% Compound C (free florfenicol formed)” value [4, 11] was 0.86%. The “% Compound A” value [4, 11] was 95.83%, the “% Compound B (cyclic phosphate formed)” value [4, 12] was 1.25% and the “% Compound C (free florfenicol formed)” value [4, 12] was 0.70%. The “% Compound A” value [4, 12] was 93.83%, the “% Compound B (cyclic phosphate formed)” value [4, 13] was 1.41% and the “% Compound C (free florfenicol formed)” value [4, 13] was 0.93%. The “% Compound A” value [4, 13] was 93.06%.

In the case of `CS(=O)(=O)c1ccc([C@@H](OC(=O)CCCC(=O)O)[C@@H](CF)NC(=O)C(Cl)Cl)cc1` [glutarate ester of florfenicol], the “conversion (hydrolysis) to florfenicol” value [5] is reported as “approximately 6%” and the “conversion (hydrolysis) to florfenicol” value [6] is reported as “about 3%”.

For `CS(=O)(=O)c1ccc([C@@H](OP(=O)([O-])[O-])[C@@H](CF)NC(=O)C(Cl)Cl)cc1.[Na+].[Na+]` [sodium salt of florfenicol phosphate, [1R, 2S-1-(4-Methanesulfonylphenyl)-2-(2,2-dichloroacetylamino)-3-fluoropropyl]phosphate disodium salt], the “aqueous solubility (original concentration by HPLC)” value (physchem) was “greater than 700 mg/mL” and the “conversion of the prodrug into cyclic diester” value ([4]; heating a solution of the bis sodium salt) was “almost quantitative conversion”.
